Source: US11174252B2, “Heterocyclic compounds as kinase inhibitors” (priority 2018, dated 2021)
Where a name gives a salt, the structure may show the parent alone. Read-outs that look alike come from different tables or passages of the source.

Legend:
[1] = tested on: pRb (Ser780 phosphorylation state of RB1) in MCF-7 cells; assay: Determination of pRb levels (Ser780 phosphorylation of RB1, ELISA) in MCF-7 cells; assay type: cell-based; settings: Homo sapiens, 24 h; for inhibition at 0.01 µM: MCF7, 0.01 μM; for inhibition at 0.1 µM: MCF7, 0.1 μM; for inhibition at 1 µM: MCF7, 1 μM
Description: […] of the retinoblastoma protein (pRb) by cyclin D:Cdk4/6 complexes results in […] pRb, which is a clinically relevant biomarker associated with CDK4 or CDK6 inhibition. As a confirmatory measure of functional activity of CDK4/6, the Ser780 phosphorylation state of RB1 was assessed. MCF-7 cells were plated at 2.5×10^5 to 3.0×10^6 cells/well in 6-well cell-culture plates and incubated at 37° C. for 24 h in MEM medium supplemented with 10% FBS. Cells were treated for 24 h with a medium containing test compound at various concentrations (e.g., 0.01, 0.1, 1 μM) or with DMSO (≤1%) in duplicate. After incubation period, the media was removed, and cells were rinsed once with ice-cold PBS and lysed with 0.2 mL of Cell Lysis Buffer containing 1 mM PMSF and Protease Inhibitor. Protein concentration was estimated following Bradford method. The lysis and the pRB measurements were performed following the manufacturer's ELISA kit protocols and buffers (Cell Signaling Technology, Cat. No.: 13016C). pRb inhibition of test compounds were calculated as percentage of vehicle control.

MCF-7 = assay: Cancer cell proliferation assay, single agent; assay type: cell-based; settings: Homo sapiens
CDK2 (cyclin A) = CDK2 (cyclin A) (Homo sapiens (Human), UniProt P24941); assay: Z'-LYTE kinase assay; assay type: biochemical
Description: IC50 values of compounds against CDK2 (cyclin A) were determined by Z'-LYTETM. […] The following equations were used for Z'-LYTETM Screening Assay Data Analysis.

A549 = assay: Cancer cell proliferation assay, single agent; assay type: cell-based; settings: Homo sapiens
PI3Kδ kinase = PI3Kδ kinase (Homo sapiens (Human), UniProt O00329); assay: PI3Kδ kinase ADP-Glo assay (Reaction Biology Corporation); settings: read-out: PI3Kδ IC50
Chain of PI3Kδ kinase (O00329 whole entry): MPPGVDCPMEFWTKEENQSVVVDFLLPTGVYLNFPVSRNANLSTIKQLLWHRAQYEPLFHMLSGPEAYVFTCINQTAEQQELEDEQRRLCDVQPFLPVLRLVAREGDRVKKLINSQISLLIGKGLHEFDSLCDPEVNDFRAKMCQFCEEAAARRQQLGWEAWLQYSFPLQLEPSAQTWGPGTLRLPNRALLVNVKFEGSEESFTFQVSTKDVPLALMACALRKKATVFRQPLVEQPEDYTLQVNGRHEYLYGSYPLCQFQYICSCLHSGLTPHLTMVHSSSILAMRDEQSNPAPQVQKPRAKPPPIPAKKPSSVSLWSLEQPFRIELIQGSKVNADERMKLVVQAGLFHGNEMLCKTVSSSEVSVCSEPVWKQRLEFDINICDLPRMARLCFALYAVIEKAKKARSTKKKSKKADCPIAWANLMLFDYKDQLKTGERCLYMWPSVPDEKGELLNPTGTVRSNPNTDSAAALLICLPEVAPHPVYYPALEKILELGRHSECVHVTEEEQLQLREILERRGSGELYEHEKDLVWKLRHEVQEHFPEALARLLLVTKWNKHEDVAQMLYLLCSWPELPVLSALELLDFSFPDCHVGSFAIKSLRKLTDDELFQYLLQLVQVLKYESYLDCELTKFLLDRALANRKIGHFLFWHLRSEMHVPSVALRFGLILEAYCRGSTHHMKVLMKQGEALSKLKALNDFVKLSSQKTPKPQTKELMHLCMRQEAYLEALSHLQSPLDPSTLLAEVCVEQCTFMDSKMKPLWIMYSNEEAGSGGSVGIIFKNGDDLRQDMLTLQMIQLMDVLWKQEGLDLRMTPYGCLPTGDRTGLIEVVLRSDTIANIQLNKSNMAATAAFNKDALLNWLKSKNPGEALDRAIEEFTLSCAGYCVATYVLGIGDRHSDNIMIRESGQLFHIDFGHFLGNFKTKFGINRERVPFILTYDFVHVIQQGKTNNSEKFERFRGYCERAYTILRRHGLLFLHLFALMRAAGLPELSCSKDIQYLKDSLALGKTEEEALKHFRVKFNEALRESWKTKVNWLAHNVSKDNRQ
Chain of PI3Kδ kinase (P27986 whole entry partner): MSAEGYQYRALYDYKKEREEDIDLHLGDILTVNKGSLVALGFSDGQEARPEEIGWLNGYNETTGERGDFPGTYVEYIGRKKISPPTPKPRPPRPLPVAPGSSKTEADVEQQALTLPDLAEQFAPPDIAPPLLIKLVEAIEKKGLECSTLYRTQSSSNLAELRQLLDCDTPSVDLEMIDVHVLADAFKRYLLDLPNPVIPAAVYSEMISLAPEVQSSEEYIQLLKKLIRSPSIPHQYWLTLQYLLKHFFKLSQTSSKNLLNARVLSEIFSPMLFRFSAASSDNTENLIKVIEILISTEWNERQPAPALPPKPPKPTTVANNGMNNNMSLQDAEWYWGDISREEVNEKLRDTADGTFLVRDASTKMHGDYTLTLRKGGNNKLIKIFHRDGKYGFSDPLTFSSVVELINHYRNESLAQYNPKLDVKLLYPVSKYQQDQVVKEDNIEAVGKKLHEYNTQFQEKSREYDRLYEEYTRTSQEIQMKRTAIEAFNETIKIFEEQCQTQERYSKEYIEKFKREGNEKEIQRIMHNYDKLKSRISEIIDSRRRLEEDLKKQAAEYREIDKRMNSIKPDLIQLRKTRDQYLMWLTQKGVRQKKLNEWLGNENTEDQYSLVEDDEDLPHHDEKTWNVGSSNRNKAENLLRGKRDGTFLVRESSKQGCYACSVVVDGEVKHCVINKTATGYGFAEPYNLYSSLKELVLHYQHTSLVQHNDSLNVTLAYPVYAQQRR

FMS kinase = FMS kinase (Homo sapiens (Human), UniProt P07333); assay: LanthaScreen kinase assay (ATP, fluorescent-PolyGT substrate, TR-FRET); assay type: biochemical
HCT-116 = assay: Cancer cell proliferation assay, single agent; assay type: cell-based; settings: Homo sapiens, Treatment Duration 72 h, read-out: IC50 HCT116
DU4475 = assay: Cancer cell proliferation assay, single agent; assay type: cell-based; settings: Homo sapiens
CDK2 (cyclin E1) = CDK2 (cyclin E1) (Homo sapiens (Human), UniProt P24941); assay: LanthaScreen Eu Kinase Binding Assay; settings: read-out: CDK2/E IC50
CDK1 (cyclin B) = CDK1 (cyclin B) (Homo sapiens (Human), UniProt P06493); assay: Z'-LYTE kinase assay; assay type: biochemical
Chain of CDK1 (cyclin B) (P06493 whole entry): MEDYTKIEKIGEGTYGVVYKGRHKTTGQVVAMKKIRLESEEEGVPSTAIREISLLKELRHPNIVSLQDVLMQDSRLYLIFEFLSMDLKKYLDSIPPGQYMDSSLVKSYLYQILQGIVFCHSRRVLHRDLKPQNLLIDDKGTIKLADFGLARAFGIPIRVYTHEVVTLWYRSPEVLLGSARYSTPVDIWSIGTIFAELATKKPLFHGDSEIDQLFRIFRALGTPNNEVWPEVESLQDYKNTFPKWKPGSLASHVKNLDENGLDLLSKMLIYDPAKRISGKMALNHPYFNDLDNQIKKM
Chain of CDK1 (cyclin B) (P14635 whole entry partner): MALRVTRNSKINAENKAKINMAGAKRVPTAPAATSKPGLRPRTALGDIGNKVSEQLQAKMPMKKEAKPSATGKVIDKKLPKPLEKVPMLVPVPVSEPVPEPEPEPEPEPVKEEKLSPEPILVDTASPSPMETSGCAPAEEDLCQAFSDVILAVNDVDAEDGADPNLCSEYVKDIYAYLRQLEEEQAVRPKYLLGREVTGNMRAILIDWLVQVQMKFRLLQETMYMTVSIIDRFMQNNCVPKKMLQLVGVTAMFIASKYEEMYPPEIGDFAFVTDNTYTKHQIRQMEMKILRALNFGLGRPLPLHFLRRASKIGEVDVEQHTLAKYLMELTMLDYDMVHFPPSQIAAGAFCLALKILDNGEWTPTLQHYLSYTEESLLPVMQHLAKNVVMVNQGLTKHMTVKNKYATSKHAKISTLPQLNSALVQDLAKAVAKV
From the text: The following equations were used for Z′-LYTE™ Screening Assay Data Analysis.

BT-549 = assay: Cancer cell proliferation assay, single agent; assay type: cell-based; settings: Homo sapiens
CDK5 (p25) = CDK5 (p25) (Homo sapiens (Human), UniProt Q00535); assay: Z'-LYTE kinase assay; assay type: biochemical
Chain of CDK5 (p25) (Q00535 whole entry): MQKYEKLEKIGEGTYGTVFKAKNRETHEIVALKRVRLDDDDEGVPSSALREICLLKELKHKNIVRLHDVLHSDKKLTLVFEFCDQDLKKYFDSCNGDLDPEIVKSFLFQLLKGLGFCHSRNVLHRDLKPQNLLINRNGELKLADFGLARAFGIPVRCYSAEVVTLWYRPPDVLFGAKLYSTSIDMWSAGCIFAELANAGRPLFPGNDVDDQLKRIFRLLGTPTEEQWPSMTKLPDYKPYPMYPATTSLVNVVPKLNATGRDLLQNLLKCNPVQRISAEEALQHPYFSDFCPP
Chain of CDK5 (p25) (Q15078 99-307 partner): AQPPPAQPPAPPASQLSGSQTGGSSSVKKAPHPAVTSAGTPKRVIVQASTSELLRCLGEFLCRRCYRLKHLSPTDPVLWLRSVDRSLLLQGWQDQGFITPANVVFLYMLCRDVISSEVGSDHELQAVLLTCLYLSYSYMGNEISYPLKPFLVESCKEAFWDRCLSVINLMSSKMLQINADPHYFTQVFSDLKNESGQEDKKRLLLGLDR
From the text: The following equations were used for Z'-LYTETM Screening Assay Data Analysis.

CDK7 (cyclin H) = CDK7 (cyclin H) (Homo sapiens (Human), UniProt P50613); assay: Adapta Assay; assay type: biochemical
Chain of CDK7 (cyclin H) (P50613 whole entry): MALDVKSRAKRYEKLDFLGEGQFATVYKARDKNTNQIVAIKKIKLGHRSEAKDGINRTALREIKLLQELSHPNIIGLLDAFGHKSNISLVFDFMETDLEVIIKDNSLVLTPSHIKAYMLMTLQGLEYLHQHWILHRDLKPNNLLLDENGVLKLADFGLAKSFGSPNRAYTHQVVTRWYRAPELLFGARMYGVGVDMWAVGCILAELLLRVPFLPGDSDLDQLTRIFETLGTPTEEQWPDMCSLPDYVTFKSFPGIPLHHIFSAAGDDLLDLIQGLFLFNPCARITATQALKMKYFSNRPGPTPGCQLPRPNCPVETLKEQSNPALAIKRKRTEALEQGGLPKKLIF
Chain of CDK7 (cyclin H) (P51946 whole entry partner): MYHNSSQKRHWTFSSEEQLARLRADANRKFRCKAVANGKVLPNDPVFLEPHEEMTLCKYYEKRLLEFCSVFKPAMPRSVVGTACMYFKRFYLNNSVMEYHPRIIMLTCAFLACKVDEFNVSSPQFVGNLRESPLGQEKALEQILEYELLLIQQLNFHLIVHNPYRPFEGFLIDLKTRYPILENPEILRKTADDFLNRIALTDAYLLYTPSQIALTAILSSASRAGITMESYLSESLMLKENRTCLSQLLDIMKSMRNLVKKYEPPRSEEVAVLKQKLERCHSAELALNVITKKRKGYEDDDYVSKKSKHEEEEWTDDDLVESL
Chain of CDK7 (cyclin H) (P51948 whole entry partner): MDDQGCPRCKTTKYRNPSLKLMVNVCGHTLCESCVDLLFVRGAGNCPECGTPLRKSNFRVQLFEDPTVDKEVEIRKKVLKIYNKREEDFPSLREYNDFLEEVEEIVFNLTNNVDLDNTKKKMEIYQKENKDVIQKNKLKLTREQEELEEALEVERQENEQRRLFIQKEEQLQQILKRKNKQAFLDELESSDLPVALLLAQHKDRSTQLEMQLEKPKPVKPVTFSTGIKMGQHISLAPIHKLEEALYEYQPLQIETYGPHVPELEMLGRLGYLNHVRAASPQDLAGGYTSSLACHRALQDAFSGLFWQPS
From the text: The following equations were used for Adapta™ Assay Data Analysis.

CDK6 = CDK6 (Homo sapiens (Human), UniProt Q00534); assay: biochemical; assay type: biochemical
CDK4 = CDK4 (Homo sapiens (Human), UniProt P11802); assay: In vitro kinase inhibition, luminescence (ADP-Glo) with retinoblastoma substrate; assay type: biochemical
Chain of CDK4 (P11802 whole entry): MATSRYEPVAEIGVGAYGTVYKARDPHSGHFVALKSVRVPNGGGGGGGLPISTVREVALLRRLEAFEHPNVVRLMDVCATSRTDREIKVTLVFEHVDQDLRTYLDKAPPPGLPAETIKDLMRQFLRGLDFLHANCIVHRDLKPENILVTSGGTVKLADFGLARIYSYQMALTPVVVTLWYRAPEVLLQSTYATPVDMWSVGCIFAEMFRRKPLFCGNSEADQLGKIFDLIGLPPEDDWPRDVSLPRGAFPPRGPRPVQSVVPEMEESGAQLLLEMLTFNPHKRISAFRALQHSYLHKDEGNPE
Chain of CDK4 (P24385 whole entry partner): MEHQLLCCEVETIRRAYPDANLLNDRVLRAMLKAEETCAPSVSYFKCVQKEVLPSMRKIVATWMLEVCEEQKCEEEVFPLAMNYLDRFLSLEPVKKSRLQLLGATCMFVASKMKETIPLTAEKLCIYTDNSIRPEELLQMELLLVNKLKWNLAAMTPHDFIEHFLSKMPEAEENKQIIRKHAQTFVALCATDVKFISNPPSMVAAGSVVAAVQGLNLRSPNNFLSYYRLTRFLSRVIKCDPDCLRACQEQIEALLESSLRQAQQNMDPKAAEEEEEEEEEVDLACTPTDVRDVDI

CDK9 (cyclin K) = CDK9 (cyclin K) (Homo sapiens (Human), UniProt P50750); assay: LanthaScreen Eu Kinase Binding Assay; settings: read-out: CDK9/K IC50
Hs-578T = assay: Cancer cell proliferation assay, single agent; assay type: cell-based; settings: Homo sapiens, Treatment Duration 24 h
ZR-75-30 = assay: Cancer cell proliferation assay, single agent; assay type: cell-based; settings: Homo sapiens, Treatment Duration 24 h
[2] = A549, 72 h, read-out: IC50 A549
[3] = DU-4475, 168 h, read-out: IC50 DU4475
[4] = BT-549, 24 h, read-out: IC50 BT-549
[5] = MCF7, MCF-7 cells, treated for 24-168 hours, read-out: IC50 (nM) MCF-7
[6] = DU-4475, DU4475 cells, treated for 24-168 hours, read-out: IC50 (nM) DU4475
[7] = A549 cells, treated for 24-168 hours, read-out: IC50 (nM) A549
[8] = DU-4475, read-out: IC50 (nM) DU4475

| Compound | IC50 (CDK2 (cyclin A)) | IC50 (PI3Kδ kinase) | IC50 (FMS kinase) | IC50 (CDK1 (cyclin B)) | IC50 (MCF-7; [5]) | IC50 (CDK5 (p25)) | IC50 (CDK7 (cyclin H)) | IC50 (CDK6) | IC50 (CDK4) | IC50 (DU4475; [6]) | IC50 (CDK9 (cyclin K)) | also measured |
| --- | --- | --- | --- | --- | --- | --- | --- | --- | --- | --- | --- | --- |
| CC(C)N1CCOc2c(F)cc(-c3nc(Nc4ccc(N5CCNCC5)c(F)c4)ncc3F)cc21 [Compound 12, 5-fluoro-N-(3-fluoro-4-(piperazin-1-yl)phenyl)-4-(8-fluoro-4-isopropyl-3,4-dihydro-2H-benzo[b][1,4]oxazin-6-yl)pyrimidin-2-amine hydrochloride] | 0.7 nM | 674 nM | 29 nM | 3.9 nM |  |  |  |  |  |  |  | inhibition at 0.01 µM [1]: -5%; inhibition at 0.1 µM [1]: 81%; inhibition at 1 µM [1]: 81%; IC50 (MCF-7; MCF7, 72 h, read-out: IC50 MCF-7): < 10 nM; IC50 (A549; [2]): < 13 nM; IC50 (HCT-116): < 13 nM; IC50 (DU4475; [3]): 40 nM; IC50 (CDK2 (cyclin E1)): 7.2 nM; IC50 (BT-549; [4]): 230 nM |
| CC(C)N1CCOc2c(F)cc(-c3nc(Nc4ccn(C5CCNCC5)c(=O)c4)ncc3F)cc21 [Compound 437, 4-((5-fluoro-4-(8-fluoro-4-isopropyl-3,4-dihydro-2H-benzo[b][1,4]oxazin-6-yl)pyrimidin-2-yl)amino)-1-(piperidin-4-yl)pyridin-2(1H)-one] | 3 nM |  | 3 nM | 9 nM | 45 nM | 7.7 nM | 85 nM |  |  |  |  |  |
| CC(C)N1CCOc2c(F)cc(-c3nc(Nc4ccc(N5CCC(O)CC5)cn4)ncc3F)cc21 [Compound 447, 1-(6-((5-fluoro-4-(8-fluoro-4-isopropyl-3,4-dihydro-2H-benzo[b][1,4]oxazin-6-yl)pyrimidin-2-yl)amino)pyridin-3-yl)piperidin-4-ol] | 36 nM | > 50000 nM | 1680 nM | 238 nM | 300 nM |  | > 10000 nM | 1.6 nM | 1.1 nM | 230 nM | 243 nM |  |
| CC(C)N1CCOc2c(F)cc(-c3nc(Nc4ccc(N5CCC(N(C)C)CC5)nc4)ncc3F)cc21 [Compound 38, N-(6-(4-(dimethylamino)piperidin-1-yl)pyridin-3-yl)-5-fluoro-4-(8-fluoro-4-isopropyl-3,4-dihydro-2H-benzo[b][1,4]oxazin-6-yl)pyrimidin-2-amine] |  |  | 40 nM | 3 nM | 20 nM |  | 163 nM |  |  | 45 nM |  |  |
| CC(C)N1CCOc2c(F)cc(-c3nc(Nc4ccc(C5CCN(C)CC5)cn4)ncc3F)cc21 [Compound 442, 5-fluoro-4-(8-fluoro-4-isopropyl-3,4-dihydro-2H-benzo[b][1,4]oxazin-6-yl)-N-(5-(1-methylpiperidin-4-yl)pyridin-2-yl)pyrimidin-2-amine] | 7 nM | > 50000 nM | 353 nM | 73 nM | 125 nM | 27 nM | 1160 nM | 1 nM | 2 nM | 503 nM | 41 nM | IC50 (A549; [7]): 465 nM |
| CC(C)N1CCOc2c(F)cc(-c3nc(Nc4ccc(C5CCN(C)CC5)nc4)ncc3F)cc21 [Compound 33, 5-fluoro-4-(8-fluoro-4-isopropyl-3,4-dihydro-2H-benzo[b][1,4]oxazin-6-yl)-N-(6-(1-methylpiperidin-4-yl)pyridin-3-yl)pyrimidin-2-amine] | 2 nM |  | 48 nM | 3 nM | < 14 nM | 1 nM | 54 nM | 1.5 nM | 1.5 nM |  | 2 nM | IC50 (DU4475; [8]): 40 nM |
| CC(C)N1CCOc2c(F)cc(-c3nc(Nc4ccc(N5CCC(N(C)C)CC5)cn4)ncc3F)cc21 [Compound 436, N-(5-(4-(dimethylamino)piperidin-1-yl)pyridin-2-yl)-5-fluoro-4-(8-fluoro-4-isopropyl-3,4-dihydro-2H-benzo[b][1,4]oxazin-6-yl)pyrimidin-2-amine] | 8 nM |  | > 5000 nM | 82 nM | 165 nM | 38 nM | 2360 nM |  |  | 383 nM | 73 nM | IC50 (A549; [7]): 390 nM |
| CC(C)N1CCOc2c(F)cc(-c3nc(Nc4ccc(N5CCNCC5)cn4)ncc3F)cc21 [Compound 1, 5-fluoro-4-(8-fluoro-4-isopropyl-3,4-dihydro-2H-benzo[b][1,4]oxazin-6-yl)-N-(5-(piperazin-1-yl)pyridin-2-yl)pyrimidin-2-amine] |  | 3360 nM | 1330 nM |  |  |  |  | 0.2 nM | 0.2 nM |  |  | inhibition at 0.01 µM [1]: 77%; inhibition at 0.1 µM [1]: 80%; inhibition at 1 µM [1]: 89%; IC50 (MCF-7; MCF7, Treatment Duration 72 h, read-out: IC50 MCF-7): 68 nM; IC50 (Hs-578T): 60 nM; IC50 (A549; [2]): 65 nM; IC50 (ZR-75-30): 49 nM; IC50 (HCT-116): 515 nM; IC50 (DU4475; [3]): 575 nM; IC50 (BT-549; [4]): 3200 nM |
| CC(C)N1CCOc2c(F)cc(-c3nc(Nc4ccc(N5CCOCC5)cn4)ncc3F)cc21 [Compound 446, 5-fluoro-4-(8-fluoro-4-isopropyl-3,4-dihydro-2H-benzo[b][1,4]oxazin-6-yl)-N-(5-morpholinopyridin-2-yl)pyrimidin-2-amine] | 68 nM | 21800 nM | 1120 nM | 679 nM | 850 nM |  | > 10000 nM | 8.8 nM | 3.9 nM | 385 nM | 280 nM |  |
| CC(C)N1CCOc2c(F)cc(-c3nc(Nc4ccc(N5CCC(N(C)C)CC5)c(F)c4)ncc3F)cc21 [Compound 25, N-(4-(4-(dimethylamino)piperidin-1-yl)-3-fluorophenyl)-5-fluoro-4-(8-fluoro-4-isopropyl-3,4-dihydro-2H-benzo[b][1,4]oxazin-6-yl)pyrimidin-2-amine] | 3.4 nM | 6100 nM | 5 nM | 6.7 nM | 25 nM | 3.6 nM | 145 nM |  |  | 46 nM | 5 nM | IC50 (BT-549; BT-549 cells, treated for 24-168 hours, read-out: IC50 (nM) BT-549): < 1110 nM |
| CC(C)CN1CCOc2c(F)cc(-c3nc(Nc4ccc5c(n4)CCNC5)ncc3F)cc21 [Compound 483, N-(5-fluoro-4-(8-fluoro-4-isobutyl-3,4-dihydro-2H-benzo[b][1,4]oxazin-6-yl)pyrimidin-2-yl)-5,6,7,8-tetrahydro-1,6-naphthyridin-2-amine] | 44 nM | > 50000 nM | > 5000 nM | 181 nM |  |  |  | 20 nM | 25 nM |  |  | IC50 (MCF-7; MCF7, read-out: IC50 (nM) MCF-7): 460 nM; IC50 (DU4475; [8]): 665 nM |
